Experimental data published in patent US10711004B2 (Genentech, Inc., priority 2018, dated 2020).
Read-outs that look alike come from different tables or passages of the source.

Biological target: human TRPA1 channel (Homo sapiens (Human), UniProt O75762)
Assay: hTRPA1 CHO Ca2+ FLIPR Tetra assay, block of cinnamaldehyde induced calcium influx
Type: cell-based
Conditions: CHO cells expressing TRPA1, Hill coefficient fixed to 1.5
Outline: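 Calcium-dye-loaded TRPA1-expressing CHO cells in HBSS/20 mM HEPES pH 7.4, 0.02% BSA were preincubated with compound for 10 or 90 min at room temperature. Calcium influx evoked by roughly an EC50 concentration of cinnamaldehyde was then read on FLIPR Tetra; IC50 came from curve fits with a fixed Hill coefficient.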

[1] = read-out: hTRPA1 IC50 (10 min), compounds incubated 10 minutes at room temperature before cinnamaldehyde agonist
[2] = read-out: hTRPA1 IC50 (90 min), compounds incubated 90 minutes at room temperature before cinnamaldehyde agonist

human TRPA1 channel, sequence (O75762 whole entry): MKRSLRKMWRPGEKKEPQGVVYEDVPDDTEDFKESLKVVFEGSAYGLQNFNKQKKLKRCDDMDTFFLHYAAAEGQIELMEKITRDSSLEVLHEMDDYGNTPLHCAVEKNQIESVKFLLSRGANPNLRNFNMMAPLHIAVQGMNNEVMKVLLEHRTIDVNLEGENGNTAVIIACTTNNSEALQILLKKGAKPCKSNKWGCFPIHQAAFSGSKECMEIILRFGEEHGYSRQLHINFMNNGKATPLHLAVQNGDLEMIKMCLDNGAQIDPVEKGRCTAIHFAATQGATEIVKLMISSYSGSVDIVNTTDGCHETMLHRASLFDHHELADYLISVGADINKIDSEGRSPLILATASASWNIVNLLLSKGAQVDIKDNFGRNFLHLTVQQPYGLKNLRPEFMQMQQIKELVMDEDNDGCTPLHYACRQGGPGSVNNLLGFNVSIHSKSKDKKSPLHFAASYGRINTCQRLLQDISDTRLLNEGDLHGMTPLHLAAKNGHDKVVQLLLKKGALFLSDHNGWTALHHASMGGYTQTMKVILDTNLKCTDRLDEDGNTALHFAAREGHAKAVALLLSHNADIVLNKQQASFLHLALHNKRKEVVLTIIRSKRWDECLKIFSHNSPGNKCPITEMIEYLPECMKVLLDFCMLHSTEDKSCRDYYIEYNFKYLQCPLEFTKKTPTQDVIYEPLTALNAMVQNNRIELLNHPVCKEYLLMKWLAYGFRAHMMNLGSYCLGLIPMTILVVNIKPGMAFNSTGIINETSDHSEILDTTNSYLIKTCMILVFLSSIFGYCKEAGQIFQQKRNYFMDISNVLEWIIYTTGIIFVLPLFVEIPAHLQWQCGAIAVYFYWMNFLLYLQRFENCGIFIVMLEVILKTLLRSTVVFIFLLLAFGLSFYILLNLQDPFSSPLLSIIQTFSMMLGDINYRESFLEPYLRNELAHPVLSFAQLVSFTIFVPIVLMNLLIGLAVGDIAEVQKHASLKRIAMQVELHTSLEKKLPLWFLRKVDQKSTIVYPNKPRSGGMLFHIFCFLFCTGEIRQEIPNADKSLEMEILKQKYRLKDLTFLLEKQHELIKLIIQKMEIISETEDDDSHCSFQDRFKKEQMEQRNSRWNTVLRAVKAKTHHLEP

Work on `Cn1cnc2ncn(Cc3nc([C@@H]4[C@H]5C=C(c6ccc(Cl)cc6)C[C@H]54)no3)c(=O)c21` [Example Compound 142, 1-((3-((1R,5R,6S)-3-(4-chlorophenyl)bicyclo[3.1.0]hex-2-en-6-yl)-1,2,4-oxadiazol-5-yl)methyl)-7-methyl-1,7-dihydro-6H-purin-6-one] yielded an IC50 [1] of 15.2 nM and an IC50 [2] of 12 nM.
`Cc1ccnc2ncn(Cc3nc([C@H]4C[C@](F)(c5cccc(F)c5)C4)no3)c(=O)c12` [Example Compound 143, 3-((3-((1s,3s)-3-fluoro-3-(3-fluorophenyl)cyclobutyl)-1,2,4-oxadiazol-5-yl)methyl)-5-methylpyrido[2,3-d]pyrimidin-4(3H)-one] gave an IC50 [1] of 33.7 nM and an IC50 [2] of 28 nM.
`Cn1cnc2ncn(Cc3nc([C@H]4[C@@H]5CN(c6cncc(F)c6)C[C@@H]54)no3)c(=O)c21` [Example Compound 144, 1-((3-((1R,5S,6r)-3-(5-fluoropyridin-3-yl)-3-azabicyclo[3.1.0]hexan-6-yl)-1,2,4-oxadiazol-5-yl)methyl)-7-methyl-1,7-dihydro-6H-purin-6-one] showed an IC50 [1] of 363 nM and an IC50 [2] of 89 nM.
`Cn1cnc2ncn(Cc3nc([C@H]4[C@@H]5CN(c6cncc(C(F)(F)F)c6)C[C@@H]54)no3)c(=O)c21` [Example Compound 145, 7-methyl-1-((3-((1R,5S,6r)-3-(5-(trifluoromethyl)pyridin-3-yl)-3-azabicyclo[3.1.0]hexan-6-yl)-1,2,4-oxadiazol-5-yl)methyl)-1,7-dihydro-6H-purin-6-one] gave an IC50 [1] of 797 nM and an IC50 [2] of 480 nM.
Work on `Cn1cnc2ncn(Cc3nc([C@H]4[C@@H]5CN(c6ccnc(Cl)c6)C[C@@H]54)no3)c(=O)c21` [Example Compound 146, 1-((3-((1R,5S,6r)-3-(2-chloropyridin-4-yl)-3-azabicyclo[3.1.0]hexan-6-yl)-1,2,4-oxadiazol-5-yl)methyl)-7-methyl-1,7-dihydro-6H-purin-6-one] yielded an IC50 [1] of 460 nM and an IC50 [2] of 100 nM.
With `O=c1c2cccnc2ncn1Cc1nc([C@H]2C[C@H](Oc3cccc(F)c3)C2)no1` [Example Compound 147, 3-((3-((1r,3r)-3-(3-fluorophenoxy)cyclobutyl)-1,2,4-oxadiazol-5-yl)methyl)pyrido[2,3-d]pyrimidin-4(3H)-one] the IC50 [1] was 232 nM and the IC50 [2] was 140 nM.
`Cn1cnc2cnn(Cc3nc([C@H]4[C@@H]5CN(c6cc(Cl)ccn6)C[C@@H]54)no3)c(=O)c21` [Example Compound 148, 5-((3-((1R,5S,6r)-3-(4-chloropyridin-2-yl)-3-azabicyclo[3.1.0]hexan-6-yl)-1,2,4-oxadiazol-5-yl)methyl)-3-methyl-3,5-dihydro-4H-imidazo[4,5-d]pyridazin-4-one] gave an IC50 [1] of 305 nM and an IC50 [2] of 150 nM.
`Cn1nnc2ncn(Cc3nc([C@H]4C[C@](F)(c5ccc(Cl)cc5)C4)no3)c(=O)c21` [Example Compound 149, 6-((3-((1s,3s)-3-(4-chlorophenyl)-3-fluorocyclobutyl)-1,2,4-oxadiazol-5-yl)methyl)-1-methyl-1,6-dihydro-7H-[1,2,3]triazolo[4,5-d]pyrimidin-7-one] gave an IC50 [1] of 253 nM and an IC50 [2] of 160 nM.
With `Cn1cnc2ncn(Cc3nc([C@H]4[C@@H]5CN(c6ccc(-c7cnco7)cc6)C[C@@H]54)no3)c(=O)c21` [Example Compound 150, 7-methyl-1-((3-((1R,5S,6r)-3-(4-(oxazol-5-yl)phenyl)-3-azabicyclo[3.1.0]hexan-6-yl)-1,2,4-oxadiazol-5-yl)methyl)-1,7-dihydro-6H-purin-6-one] the IC50 [1] was 162 nM and the IC50 [2] was 38 nM.
Compound `O=c1c2cccnc2ncn1Cc1nc([C@H]2[C@@H]3CN(c4ccc(Cl)cn4)C[C@@H]32)no1` [Example Compound 151, 3-((3-((1R,5S,6r)-3-(5-chloropyridin-2-yl)-3-azabicyclo[3.1.0]hexan-6-yl)-1,2,4-oxadiazol-5-yl)methyl)pyrido[2,3-d]pyrimidin-4(3H)one] has an IC50 [1] of 40 nM and an IC50 [2] of 38 nM.
`O=c1c2cccnc2cnn1Cc1nc([C@H]2[C@@H]3CN(c4ccnc(F)c4)C[C@@H]32)no1` [Example Compound 152, 6-((3-((1R,5S,6r)-3-(2-fluoropyridin-4-yl)-3-azabicyclo[3.1.0]hexan-6-yl)-1,2,4-oxadiazol-5-yl)methyl)pyrido[2,3-d]pyridazin-5(6H)-one] showed an IC50 [1] of 58.7 nM and an IC50 [2] of 41 nM.
Work on `O=c1c2cccnc2cnn1Cc1nc([C@H]2[C@@H]3CN(c4cc(F)ccn4)C[C@@H]32)no1` [Example Compound 153, 6-((3-((1R,5S,6r)-3-(4-fluoropyridin-2-yl)-3-azabicyclo[3.1.0]hexan-6-yl)-1,2,4-oxadiazol-5-yl)methyl)pyrido[2,3-d]pyridazin-5(6H)-one] yielded an IC50 [1] of 95.7 nM and an IC50 [2] of 60 nM.
With `O=c1c2cccnc2ncn1Cc1nc([C@H]2[C@@H]3CN(c4cc(F)ccn4)C[C@@H]32)no1` [Example Compound 154, 3-((3-((1R,5S,6r)-3-(4-fluoropyridin-2-yl)-3-azabicyclo[3.1.0]hexan-6-yl)-1,2,4-oxadiazol-5-yl)methyl)pyrido[2,3-d]pyrimidin-4(3H)-one] the IC50 [1] was 196 nM and the IC50 [2] was 130 nM.
In the case of `Cn1ncc2ncn(Cc3nc([C@H]4[C@@H]5CN(c6cc(Cl)ccn6)C[C@@H]54)no3)c(=O)c21` [Example Compound 155, 6-((3-((1R,5S,6r)-3-(4-chloropyridin-2-yl)-3-azabicyclo[3.1.0]hexan-6-yl)-1,2,4-oxadiazol-5-yl)methyl)-1-methyl-1,6-dihydro-7H-pyrazolo[4,3-d]pyrimidin-7-one], the IC50 [1] is reported as 89.3 nM and the IC50 [2] is reported as 73 nM.
Compound `Cn1cnc2ncn(Cc3nc([C@H]4[C@@H]5CN(C[C@@H](F)c6ccc(Cl)cc6)C[C@@H]54)no3)c(=O)c21` [Example Compound 156, 1-((3-((1R,5S,6S)-3-((S)-2-(4-chlorophenyl)-2-fluoroethyl)-3-azabicyclo[3.1.0]hexan-6-yl)-1,2,4-oxadiazol-5-yl)methyl)-7-methyl-1,7-dihydro-6H-purin-6-one] has an IC50 [1] of 843 nM and an IC50 [2] of 860 nM.
Compound `O=c1c2cccnc2cnn1Cc1nc([C@H]2C[C@](F)(c3ccc(Cl)cc3)C2)no1` [Example Compound 157, 6-((3-((1s,3s)-3-(4-chlorophenyl)-3-fluorocyclobutyl)-1,2,4-oxadiazol-5-yl)methyl)pyrido[2,3-d]pyridazin-5(6H)-one] has an IC50 [1] of 98.9 nM and an IC50 [2] of 59 nM.
`Cc1cc(C#N)nc2ncn(Cc3nc([C@H]4C[C@](F)(c5ccc(Cl)cc5)C4)no3)c(=O)c12` [Example Compound 158, 3-((3-((1s,3s)-3-(4-chlorophenyl)-3-fluorocyclobutyl)-1,2,4-oxadiazol-5-yl)methyl)-5-methyl-4-oxo-3,4-dihydropyrido[2,3-d]pyrimidine-7-carbonitrile] was tested, and the IC50 [1] was 19.4 nM and the IC50 [2] was 10 nM.
`Cn1cnc2ncn(Cc3nc([C@@H]4[C@H]5C=C(c6cc(Cl)ccn6)C[C@H]54)no3)c(=O)c21` [Example Compound 159, 1-((3-((1R,5R,6S)-3-(4-chloropyridin-2-yl)bicyclo[3.1.0]hex-2-en-6-yl)-1,2,4-oxadiazol-5-yl)methyl)-7-methyl-1,7-dihydro-6H-purin-6-one] gave an IC50 [1] of 119 nM and an IC50 [2] of 68 nM.
With `Cn1cnc2ncn(Cc3nc([C@H]4[C@@H]5C=C(c6cc(Cl)ccn6)C[C@@H]54)no3)c(=O)c21` [Example Compound 160, 1-((3-((1S,5S,6R)-3-(4-chloropyridin-2-yl)bicyclo[3.1.0]hex-2-en-6-yl)-1,2,4-oxadiazol-5-yl)methyl)-7-methyl-1,7-dihydro-6H-purin-6-one] the IC50 [1] was 91.5 nM and the IC50 [2] was 31 nM.
Compound `O=c1c2cccnc2ncn1Cc1nc([C@H]2[C@@H]3C=C(c4cc(Cl)ccn4)C[C@@H]32)no1` [Example Compound 161, 3-((3-((1S,5S,6R)-3-(4-chloropyridin-2-yl)bicyclo[3.1.0]hex-2-en-6-yl)-1,2,4-oxadiazol-5-yl)methyl)pyrido[2,3-d]pyrimidin-4(3H)-one] has an IC50 [1] of 315 nM and an IC50 [2] of 200 nM.
Work on `O=c1c2cccnc2ncn1Cc1nc([C@@H]2[C@H]3C=C(c4cc(Cl)ccn4)C[C@H]32)no1` [Example Compound 162, 3-((3-((1R,5R,6S)-3-(4-chloropyridin-2-yl)bicyclo[3.1.0]hex-2-en-6-yl)-1,2,4-oxadiazol-5-yl)methyl)pyrido[2,3-d]pyrimidin-4(3H)-one] yielded an IC50 [1] of 132 nM and an IC50 [2] of 88 nM.
`Cn1cc(-c2cc(Cl)cc(N3C[C@@H]4[C@H](C3)[C@H]4c3noc(Cn4cnc5ncn(C)c5c4=O)n3)c2)cn1` [Example Compound 163, 1-((3-((1R,5S,6r)-3-(3-chloro-5-(1-methyl-1H-pyrazol-4-yl)phenyl)-3-azabicyclo[3.1.0]hexan-6-yl)-1,2,4-oxadidzol-5-yl)methyl)-7-methyl-1,7-dihydro-6H-purin-6-one] showed an IC50 [1] of 71.3 nM and an IC50 [2] of 23 nM.
`Cc1ccnc2ncn(Cc3nc([C@H]4C[C@H](c5ccc(F)cc5)C4)no3)c(=O)c12` [Example Compound 164, 3-((3-((1r,3r)-3-(4-fluorophenyl)cyclobutyl)-1,2,4-oxadiazol-5-yl)methyl)-5-methylpyrido[2,3-d]pyrimidin-4(3H)-one] gave an IC50 [1] of 15.1 nM.
For `Cc1ccnc2ncn(Cc3nc([C@H]4[C@@H]5Oc6c(Cl)cccc6[C@@H]54)no3)c(=O)c12` [Example Compound 165, 3-((3-((1S,1aR,6bS)-3-chloro-1a,6b-dihydro-1H-cyclopropa[b]benzofuran-1-yl)-1,2,4-oxadiazol-5-yl)methyl)-5-methylpyrido[2,3-d]pyrimidin-4(3H)-one], the IC50 [1] was 22.2 nM.
Work on `Cc1cc(C#N)nc2ncn(Cc3nc([C@H]4C[C@](F)(c5ccc(F)cc5)C4)no3)c(=O)c12` [Example Compound 166, 3-((3-((1s,3s)-3-fluoro-3-(4-fluorophenyl)cyclobutyl)-1,2,4-oxadiazol-5-yl)methyl)-5-methyl-4-oxo-3,4-dihydropyrido[2,3-d]pyrimidine-7-carbonitrile] yielded an IC50 [1] of 37.6 nM.
